Experiments:
[1] = test system: RS4;11 lymphoblast cells; experiment: Cell viability assay (Promega MTS), dark or pulsed irradiation; assay type: cell-based, human; details: 72 h; for EC50: Homo sapiens
Protocol: Optical control of BRD2-4 with PHOTACs. To assess the biological activity of the PHOTACs, their effect on the viability of RS4;11 lymphoblast cells was tested. Cells were treated in a 96-well plate with increasing concentrations of PHOTACs and were either irradiated with 390 nm light pulses (100 ms every 10 s) for 72 h or incubated with the compound in the dark. Subsequently, cell viability assays (Promega MTS) were performed, as previously described.
Cell culture. The human acute lymphoblastic leukemia RS4;11 (ATCC® CRL-1873™) cell line was purchased from the American Type Culture Collection and cultured in RPMI1640 medium (Gibco) with 10% fetal bovine serum (FBS) and 1% penicillin/streptomycin (PS) in a humidified incubator at 37° C. with 5% CO2 in air. Cells were divided every 2-3 days and the concentration was maintained between 1×10^5 and 1×10^6 cells/mL. For the experiments compounds were serially diluted in RPMI160 without the dye phenol red (Gibco) to reduce the influence of the dye by absorption. Azobenzene stocks and dilutions were strictly kept in the dark and prepared under red light conditions.
Colorimetric MTT Assays. The activity of dehydrogenase enzymes in metabolically active cells, as a quantitative measurement for cytotoxicity and proliferation, was determined by colorimetric measurement of the reduction of [3-(4,5-dimethylthiazol-2-yl)-5-(3-carboxymethoxyphenyl)-2-(4-sulfophenyl)-2H-tetrazolium (MTS) to formazan. The absorbance of formazan at 490 nm was measured on a FLUOstar Omega microplate reader (BMG Labtech).
Cells were treated with different concentrations, ranging from 10 μM to 1 nM, of our compounds and incubated on a 96-well plate for 72 h. They were placed in light-proof boxes and exposed to the lighting conditions specified in the experiment for 72 h. Next, 10 μL of Promega CellTiter 96® AQueous One Solution Reagent was added to each well and incubated for further 4-7 hours. The absorbance at 490 nm was then recorded with a 96-well plate reader.
LED illumination. For illumination of the cells we used the cell disco system as previously described in the literature^[25]. 390 nm 5 mm LEDs were purchased from Roithner Lasertechnik. Cells were preirradiated for 1 min at 390 nm, followed by 100 ms pulses every 10 s in 96- or 6-well plates.

[2] = test system: PARP-1; experiment: Immunoblot of PARP-1 cleavage in RS4;11 cells; assay type: cell-based, human; details: 1 μM, sustained 390 nm pulse irradiation
Protocol: FIG. 5 depicts optical control of BRD2-4 levels. A) Immunoblot analysis after treatment of RS4;11 cells with PHOTAC-I-3 for 4 h at different concentrations. Cells were either irradiated with 100 ms pulses of 390 nm light every 10 s (left) or kept in the dark (right). B) Time course of BRD2-4 degradation, c-MYC levels and PARP1 cleavage assayed by immunoblotting. RS4;11 cells were treated with PHOTAC-I-3 (1 μM) and collected at the indicated time points. PHOTAC-I-3 has no effect on BRD2-4 levels in the dark over several hours. […] D) Color-dosing: Wavelength dependence of BRD2/4 degradation promoted by 300 nM PHOTAC-I-3. E) Immunoblot analysis after treatment of RS4;11 cells with PHOTAC-I-3 and combinations with lenalidomide or (+)-JQ1 for 4 h to confirm a cereblon-based mechanism. Cells were either irradiated with 100 ms pulses of 390 nm light every 10 s (left) or kept in the dark (right). F) Optical degradation of BRD4 with the thalidomide derivative PHOTAC-I-10. Immunoblot analysis of RS4;11 cells after treatment with PHOTAC-I-10 for 4 h at different concentrations which were either irradiated with 100 ms pulses of 390 nm light every 10 s (left) or kept in the dark (right). […] The slight effect on c-MYC can be explained by inhibition of BRD4 with the (+)-JQ1 derivative PHOTAC-I-3 in the absence of targeted degradation.

Compound: COc1cc(/N=N/c2cccc3c2CN(C2CCC(=O)NC2=O)C3=O)cc(OC)c1OCC(=O)NCCCCNC(=O)C[C@@H]1N=C(c2ccc(Cl)cc2)c2c(sc(C)c2C)-n2c(C)nnc21 (stereo partly drawn) [PHOTAC-I-3, 2-((S)-4-(4-chlorophenyl)-2,3,9-trimethyl-6H-thieno[3,2-f][1,2,4]triazolo[4,3-a][1,4]diazepin-6-yl)-N-(4-(2-(4-((E)-(2-(2,6-dioxopiperidin-3-yl)-1-oxoisoindolin-4-yl)diazenyl)-2,6-dimethoxyphenoxy)acetamido)butyl)acetamide]
- EC50 difference dark vs 390 nM [1]: 7.1 fold
- light dependence of activity in viability assay ([1]; dark vs pulsed 390 nm irradiation): largest difference between light and dark activity
- EC50 ([1]; RS4-11, light or radiation study, irradiated with 390 nm light pulses (100 ms every 10 s)): 88.5 nM
- EC50 ([1]; RS4-11, in the dark): 631 nM
- PARP-1 cleavage (indicator of apoptosis) [2]: increasing cleavage of PARP-1

From patent US20220143183A1, “PHOTOSWITCHABLE PROTACS AND SYNTHESIS AND USES THEREOF” (New York University, priority 2019, published 2022)
